Measured values published in ChEMBL document CHEMBL3120132, “Antiviral compounds for the treatment of HCV” (ACS Med Chem Lett, 2014).

Test system: Hepatitis C virus
Assay: Antiviral activity against Hepatitis C virus Con1 genotype 1b expressing NS3 infected in human 2209-23 cells assessed as inhibition of viral replication after 72 hrs by luciferase reporter gene assay
Assay type: functional, organism-based, Hepacivirus hominis
Conditions: isolate Con1, 2209-23, 72 h

SMILES	IC50 [nM]
COC(=O)[C@@H]1C[C@H](NC(=O)c2ccc3ccccc3c2O)CN1CCC(C)(C)C	0.051
COC(=O)[C@@H]1C[C@H](NC(=O)c2ccc3ccccc3c2O)CN1Cc1ccccc1	0.079
CCOC(=O)[C@@H]1C[C@H](NC(=O)c2ccc3ccccc3c2O)CN1CC(C)C	0.055

Second part, the compound after the results:

IC50 [nM]	SMILES
0.052	CCOC(=O)[C@@H]1C[C@H](NC(=O)c2ccc3ccccc3c2O)CN1CC1CCC1
0.047	COC(=O)[C@@H]1C[C@H](NC(=O)c2ccc3ccccc3c2O)CN1CC1CCCCC1
0.029	CCOC(=O)[C@@H]1C[C@H](NC(=O)c2ccc3ccccc3c2O)CN1CC1CCCC1
